According to patent US20230279233A1, “ATROROSINS AS FOOD COLORS” (Chromologics ApS, priority 2020, published 2023):
Values joined by “and” are separate entries in the source; they are usually repeats but may differ in a detail not shown here. Equal values may be shown once. Read-outs that look alike come from different tables or passages of the source.

Experiments:
[1] = Temperature stability at 60° C. and 80° C. in McIlvaine buffer pH 5, absorption maxima
Method: Buffer and atrorosin was mixed for 5 minutes before the solutions were subjected heating in an incubator at 60° C. and 80° C. to colorimetric analysis using spectrophotometer. The absorption maxima at 425 nm and 490 nm were determined in a microtiter plate with a 0.45 cm cell length with buffer as blank. In comparison to the data in Table 3, the absorption spectrum of betanin is determined as above. […] In comparison to Table 5, the absorption spectrum of betanin is determined as above.

[2] = background, literature; cited from earlier work
[3] = pH stability in McIlvaine buffer pH 2.2-7.2, absorption maxima by spectrophotometer; assay type: physicochemical
Method: In comparison to the pH data for Atrorosin-E of Table 1, the absorption spectrum of carminic acid is determined as above. Its absorption maxima are 495 nm, 525 nm, 565 nm. The pH stability data for carminic acid is shown below in Table 2: […]

TA 98 = test: mini-Ames (AMES MPF) genotoxicity; assay type: cell-based
Method: Resulting powder from example 2 was sent to Cyprotox to asses for genotoxicity in a mini-Ames experiment. 43.2 mg of atrorosin was sent to Cyprotox. Mini-Ames test were conducted under the guidelines of OECD.
In comparison to the atrorosin tested above, similar 46.4 mg of carminic acid was also sent to Cyprotox to assess for genotoxicity.

[4] = Pharmacokinetic profile in rats, IV and PO; assay type: in vivo; settings: rat, IV 1 mg/kg; for Cmax: read-out: C0/Cmax
Method: Resulting powder from example 2 was sent to Evotec to asses for the pharmacokinetic profile of atrorosin. 6 rats were used, 3 rats for IV injection of atrorosin and 3 rats for PO. The rats were injected or given through mouth gauge 2 mg/kg, and blood samples were taken at regular intervals.
In comparison to example 10, similar carminic acid was also sent to Evotec to assess the pharmacokinetic profile.

[5] = pH stability in McIlvaine buffer pH 2.2-7.2, absorption maxima by spectrophotometer; assay type: physicochemical; remark: listed apart in the source
[6] = Pharmacokinetic profile in rats, IV and PO; assay type: in vivo; settings: rat, IV 1 mg/kg

SMILES: O=C(O)C1=C/C(=C/C=[N+]2/c3cc(O)c(OC4OC(CO)[C@@H](O)C(O)C4O)cc3CC2C(=O)[O-])CC(C(=O)O)N1 (stereo in doubt) [betanin, reference compound]
- heat stability (in words) ([1]; 60° C. over 24 hours): degrades significantly
- Absorption at 530 nm ([1]; 60° C., 1 H): 0.26
- Absorption at 530 nm ([1]; 60° C., 2 H): 0.2
- Absorption at 530 nm ([1]; 60° C., 3 H): 0.17
- Absorption at 530 nm ([1]; 60° C., 24 H): 0.05
- Absorption at 530 nm ([1]; 60° C., T0: Start): 0.29
- heat stability (in words) ([1]; 80° C. over 3 hours): degrades significantly
- Absorption at 530 nm ([1]; 80° C., 1 H): 0.07
- Absorption at 530 nm ([1]; 80° C., 2 H): 0.05
- Absorption at 530 nm ([1]; 80° C., 3 H): 0.03
- Absorption at 530 nm ([1]; 80° C., 15 min): 0.19
- Absorption at 530 nm ([1]; 80° C., T0: Start): 0.28
- temperature stability (in words) [2]: lack of stability over 40 °C

SMILES: Cc1c(C(=O)O)c(O)cc2c1C(=O)c1c(O)c([C@@H]3O[C@H](CO)[C@@H](O)[C@H](O)[C@H]3O)c(O)c(O)c1C2=O [carminic acid, reference compound]
- Absorption at 495 nm ([3]; pH 2.2): 0.859
- Absorption at 525 nm ([3]; pH 2.2): 0.88
- Absorption at 495 nm ([3]; pH 3.5): 1.289
- Absorption at 525 nm ([3]; pH 3.5): 1.404
- Absorption at 495 nm ([3]; pH 5): 1.561
- Absorption at 525 nm ([3]; pH 7.2): 2.171
- Absorption at 565 nm ([3]; pH 7.2): 2.23
- Fold increase (over baseline) (TA 98; TA 98 +S9, 62.5 μg/ml): 0.42
- mean # pos. Wells (TA 98; TA 98 +S9, 62.5 μg/ml): 1.00
- Fold increase (over baseline) (TA 98; TA 98 +S9, 125 μg/ml): 0.28
- mean # pos. Wells (TA 98; TA 98 +S9, 125 μg/ml): 0.67
- Fold increase (over baseline) (TA 98; TA 98 +S9, 250 μg/ml): 0.14
- mean # pos. Wells (TA 98; TA 98 +S9, 250 μg/ml): 0.33
- Fold increase (over baseline) (TA 98; TA 98 +S9, 500 μg/ml): 0.00
- mean # pos. Wells (TA 98; TA 98 +S9, 500 μg/ml): 0.00
- Fold increase (over baseline) (TA 98; TA 98 +S9, 1000 μg/ml): 0.00
- mean # pos. Wells (TA 98; TA 98 +S9, 1000 μg/ml): 0.00
- Fold increase (over baseline) (TA 98; TA 98 +S9, 2000 μg/ml): 0.14
- mean # pos. Wells (TA 98; TA 98 +S9, 2000 μg/ml): 0.33
- Fold increase (over baseline) (TA 98; TA 98 −S9, 62.5 μg/ml): 0.25
- mean # pos. Wells (TA 98; TA 98 −S9, 62.5 μg/ml): 0.33
- Fold increase (over baseline) (TA 98; TA 98 −S9, 125 μg/ml): 0.51
- mean # pos. Wells (TA 98; TA 98 −S9, 125 μg/ml): 0.67
- Fold increase (over baseline) (TA 98; TA 98 −S9, 250 μg/ml): 0.25
- mean # pos. Wells (TA 98; TA 98 −S9, 250 μg/ml): 0.33
- Fold increase (over baseline) (TA 98; TA 98 −S9, 500 μg/ml): 0.25
- mean # pos. Wells (TA 98; TA 98 −S9, 500 μg/ml): 0.33
- Fold increase (over baseline) (TA 98; TA 98 −S9, 1000 μg/ml): 0.00
- mean # pos. Wells (TA 98; TA 98 −S9, 1000 μg/ml): 0.00
- Fold increase (over baseline) (TA 98; TA 98 −S9, 2000 μg/ml): 0.00
- mean # pos. Wells (TA 98; TA 98 −S9, 2000 μg/ml): 0.00
- genotoxic effects (in words) (TA 98; mini-Ames study): do not exert any genotoxic effects
- C0/Cmax ([4]; Mean): 8213 ng/mL
- Clast ([4]; Mean): 13.4 ng/mL
- MRT ([4]; Mean): 3.5 h
- Vdss ([4]; Mean): 0.3 L/kg
- t½ ([4]; Mean): 3.5 ± 0.2 h
- Cmax ([4]; Mean): 16.7 µM
- AUCinf ([4]; individual rats 1-3, 1 mg/kg): 11497 ng · hr/mL and 12597 ng · hr/mL and 13408 ng · hr/mL and 23350 nM · hr and 25583 nM · hr and 27230 nM · hr
- C0/Cmax ([4]; individual rats 1-3, 1 mg/kg): 7095 ng/mL and 6542 ng/mL and 11003 ng/mL
- CL/CL_F ([4]; individual rats 1-3, 1 mg/kg): 1.4 mL/min/kg and 1.3 mL/min/kg and 1.2 mL/min/kg
- Clast ([4]; individual rats 1-3, 1 mg/kg): 12.3 ng/mL and 12.7 ng/mL and 15.3 ng/mL
- MRT ([4]; individual rats 1-3, 1 mg/kg): 3.2 h and 3.3 h and 3.9 h
- t½ ([4]; individual rats 1-3, 1 mg/kg): 3.7 h and 3.4 h (2×)
- Cmax ([4]; individual rats 1-3, 1 mg/kg): 14.4 µM and 13.3 µM and 22.3 µM
- Absorption at 565 nm ([5]; pH 2.2): 0.771
- Absorption at 565 nm ([5]; pH 3.5): 1.365
- Absorption at 525 nm ([5]; pH 5): 1.834
- Absorption at 565 nm ([5]; pH 5): 1.852
- Absorption at 495 nm ([5]; pH 7.2): 1.625
- CL/CL_F (plasma clearance) ([6]; Mean): 1.3 ± 0.1 mL/min/kg
- Tlast ([6]; individual rats 1-3): 24 h
- Vdss ([6]; individual rats 1-3): 0.3 L/kg
- AUC0-t ([6]; individual rats 1-3, 1 mg/kg): 11431 ng · hr/mL and 12535 ng · hr/mL and 13332 ng · hr/mL and 23216 nM · hr and 25457 nM · hr and 27076 nM · hr
- temperature stability (in words) [2]: good temperature stability
